Data taken from patent publication US20130302362A1, “Immunomodulatory Compositions, Methods and Systems Comprising Immunogenic Fragments of ApoB-100” (CEDARS-SINAI MEDICAL CENTER, priority 2010, published 2013).

How the values were obtained:
[1] = tested on: atherosclerosis; details: immunization with peptide or peptide combination; WO 02/080954 Table B; cited from earlier work
[2] = tested on: CD11c(+) dendritic cells; assay: Flow cytometric analysis of dendritic cells at immunization site and lymph nodes; format: in vivo, mice; details: 1 week after the third immunization; compared with cBSA/alum group
Method: (§1) Flow cytometric analysis was performed using standard protocols with antibodies listed in Table 1 below and a FACScan (Becton Dickinson) or a CyAn ADP analyzer (Beckman Coulter). For intracellular cytokine staining, Brefeldin A (3 μg/ml) was added to the cultured cells for 2 hours before cells subject to staining procedure. Cell membranes were permeabilized for staining intracellular molecules.
Since DCs are the major cell type upstream to both cellular and humoral immune responses, Applicants determined if these cells were affected by the immunization strategy. […]

[3] = tested on: BMDCs; assay: Endocytosis of FITC-labeled p210 by DCs in vitro; format: cell-based, mice; details: p210 labeled with FITC; FITC fluorescence in BMDCs
Method: (§2) The method for generating BMDC with GM-CSF was adapted from previous publication with modification see reference (19). Briefly, bone marrow cells from femurs and tibiae of male apoE−/− mice were plated into 10 cm culture plates (Falcon) with 20 ml complete RPMI-1640 containing 10 ng/ml GM-CSF (R&D Systems) and 10 ng/ml IL-4 (Invitrogen). Cells were washed and fed on day 3 and day 5 by removing the old medium followed by replenishing with fresh culture medium with GM-CSF and IL-4. On day 8, the immature DC appeared as non-adherent cells under the microscope and harvested by vigorous pipetting and subcultured into new culture plates with 2×10^5 DCs in 1.5 ml medium.
Peptide loading on BMDCs was defined using p210 labeled with FITC (FITC conjugating kit from Pierce).

[4] = tested on: CD8^+ CD25^− T cells; assay: Presentation of p210 by DCs to CD8+ CD25− T cells in vitro; format: cell-based, mice; details: 48 hours; DCs loaded with p210 and treated with LPS; compared to untreated or LPS only
Excerpt: The p210 peptide contains the proteoglycan binding site of the apoB-100 molecule. This peptide is a cell-penetrating peptide capable of efficiently delivering antigens for cross-presentation to cytotoxic CD8^+ T cells.^53 Applicants therefore assessed activation of CD8^+ CD25^− T cells co-cultured with DCs loaded with p210 and matured with LPS.

[5] = tested on: bone marrow derived DCs; assay: Cytolytic activity of CD8(+) T-cells from immunized mice against dendritic cells in vitro; format: cell-based
Method: as §2
CD8(+) T-cells were negatively isolated using a CD8 selection Dynabeads kit (Invitrogen) per manufacturer's protocol. […] After co-culture for 4 hours, cells were collected and processed for flow cytometric determination of CD11c and 7-AAD by LSR II flow cytometer (BD Biosciences) and data was analyzed with Summit V4.3 software. Dendritic cell death without CD8(+) T-cells in the co-culture was used as baseline and percentage of specific lysis of cells was calculated using a method described previously, see reference (20). […]
Applicants therefore assessed the effect of the vaccine on cytotoxic activity of CD8^+ T cells against syngeneic bone marrow-derived DCs. […]

[6] = tested on: Male apoE (−/−) mice; assay: p210 immunization, aortic atherosclerosis (en face Oil Red O; aortic sinus immunohistochemistry); format: in vivo
Excerpt: Selection of peptides and their preparation for immunization The establishment and screening of human apoB-100 peptides has been reported (8). Based on Applicants pilot experiments and prior reports, see references (9),(10) Applicants selected peptide 210 (p210, KTTKQ SFDLS VKAQY KKNKH—SEQ ID NO: 210) as a candidate immunogen. Native p210 peptide (Euro-Diagnostica AB, Sweden) was conjugated to cationic bovine serum albumin (cBSA) as carrier using a method described previously see references (3), (4) Alum was used as adjuvant and mixed with peptide/cBSA conjugate with 1:1 ratio in volume. Peptide conjugation and mixing with alum were prepared fresh prior to each immunization.
Male apoE (−/−) mice (Jackson Laboratories) were housed in an animal facility accredited by the American Association of Accreditation of Laboratory Animal Care and kept on a 12-hour day/night cycle with unrestricted access to water and food. The Institutional Animal Care and Use Committee of Cedars-Sinai Medical Center approved the experimental protocols. […] Mice, maintained on normal chow diet, received subcutaneous primary immunization in the dorsal area between scapulas at 6-7 weeks of age, followed by a booster at 9 and 12 weeks of age. One week after last booster, diet was switched to high cholesterol chow (TD 88137, Harlan-Teklad) and continued until euthanasia at the age of 25 weeks. Separate groups of mice receiving PBS or cBSA/alum at the same immunization time-points served as control. Some mice were sacrificed at 8 or 13 weeks of age to assess immune response against p210.
At euthanasia the hearts were harvested and embedded in OCT compound (Tissue-Tek) for cryo-section. Whole aortas were cleaned, processed and stained with Oil Red 0 to assess the extent of atherosclerosis en face with computer-assisted histomorphometry, see references (3),(4).
The sections from aortic sinus were stained with MOMA-2 (Serotec), or CD11c (eBioscience) antibody to identify macrophages or dendritic cells immunohistochemically using standard protocol. Oil-Red-O stain for plaque size was done using standard protocol. […]

[7] = tested on: AT1 receptor (AT1R); assay: Aortic AT1 receptor expression by Western blot (AngII model); format: in vivo, mice; details: ± SEM; N = 6
[8] = tested on: IFN-γ expression of dendritic cells (DCs); assay: Flow cytometric analysis of intracellular IFN-γ expression of dendritic cells (AngII model); format: in vivo, mice; details: ± SEM of CD11c-gated cells
[9] = tested on: Male apoE KO mice; assay: AngII-induced aortic aneurysm formation, rupture and survival after immunization
Method: Fourteen P210, 17 cBSA, 16 PBS, and 8 Saline injected mice were examined.
AngII (1000 ng/Kg/min) was delivered by a subcutaneous osmotic pump implanted at 10 weeks of age for 4 weeks to cause aneurysms in all three groups. Saline was delivered to the control group. Mice were sacrificed at 14 weeks of age of age. The mice were fed normal chow for the duration of experiment.
42 P210, 46 cBSA, 37 PBS, and 8 Saline injected mice were examined.
AngII (1000 ng/Kg/min) was delivered by a subcutaneous osmotic pump implanted at 10 weeks of age for 4 weeks to cause aneurysms in all three groups. Saline was delivered to the control group. Mice were sacrificed at 14 weeks of age of age. The male apoE KO mice were fed normal chow for the duration of experiment.
AngII (1000 ng/Kg/min) was delivered by a subcutaneous osmotic pump implanted at 10 weeks of age for 4 weeks to cause aneurysms in all three groups. Saline was delivered to the control group. Mice were sacrificed at 14 weeks of age of age. 42 P210, 46 cBSA, 37 PBS, and 8 Saline injected mice were examined. Mice were sacrificed at 14 weeks of age. The male apoE KO mice were fed normal chow for the duration of experiment.
At 10 weeks of age, mice were subcutaneously implanted with an osmotic pump which released AngII (1 mg/Kg/min), and were euthanized 4 weeks later.

[10] = tested on: naïve male apoE (−/−) recipient mice; assay: Adoptive transfer of lymphocytes from immunized donors, aortic atherosclerosis in recipients; format: in vivo; details: 2×10^7 donor B-cells/mouse
Excerpt: Male apoE (−/−) mice on regular chow received subcutaneous immunization as described in previous paragraph and were sacrificed at 13 weeks of age as donors. Splenocytes from the same treatment group were pooled before cell isolation. Donor CD8(+) T-cells, CD4(+)CD25(+) T-cells or B-cells were isolated using Dynabeads FlowComp (Invitrogen) according to the manufacturer's protocols. CD4(+) T-cells were negatively selected from the splenocytes followed by positive selection of CD4(+)CD25(+) cells. B cells were negatively isolated whereas CD8(+) T-cells were positively isolated first and released from beads. The purity of pooled CD8(+) T-cells, CD4(+)CD25(+) T-cells and B-cells was 90%, 80% and 70%, respectively. The isolated CD8(+) T-cells (1×10^6 cells/mouse), CD4(+)CD25(+) T-cells (1×10^5 or 3×10^5 cells/mouse) or B-cells (2×10^7 cells/mouse) were then adoptively transferred to naïve male apoE (−/−) recipient mice at 6-7 weeks of age via tail vein injection. In the published literatures of vascular biology, the number of adoptively transferred lymphocytes varied greatly. For B-cells transfer, the number of 2×10^7 cells/mouse was chosen based on two prior reports, see references (11),(12). For CD4(+)CD25(+) T-cells transfer, the number of cells transferred ranged from 5×10^4 cells/mouse to 1×10^6 cells/mouse in the published literature see references (13),(14),(15). […]

[11] = tested on: Granzyme B; assay: Granzyme B level in CD8(+) T-cells from immunized mice; format: cell-based; details: compared to PBS or cBSA/alum group
Method: as §1

[12] = tested on: Male apoE KO mice; assay: Blood pressure and heart rate in AngII-infused immunized mice; format: in vivo
Method: Saline was delivered to the control group.
Angiotensin II infusion via implanted osmotic pump was started at 10 weeks of age. Mice were euthanized at 14 weeks of age. Blood pressure was measured throughout the duration of experiment.

[13] = tested on: KLH; assay: KLH immunization after p210 immunization, KLH IgG titer; format: in vivo, Male C57/BL6 mice; details: prior p210 immunization vs PBS or cBSA/alum; 100 μg KLH s.c. at 13 and 15 weeks
Excerpt: (§3) The coating concentration was optimized in pilot experiments.

[14] = tested on: Perforin; assay: Perforin level in CD8(+) T-cells from immunized mice; format: cell-based; details: compared to PBS or cBSA/alum group
Method: as §1

[15] = tested on: superoxide; assay: Aortic superoxide production by in situ dihydroethidine method (AngII model); format: in vivo, mice; details: ± SEM; N = 9
[16] = tested on: TNP; assay: TNP-LPS immunization after p210 immunization, TNP IgG titer; format: in vivo, Male C57/BL6 mice; details: prior p210 immunization vs PBS or cBSA/alum; 100 μg TNP-LPS i.p.
Excerpt: as §3

[17] = 100 μg s.c., three immunizations, high cholesterol chow, euthanasia at 25 weeks
[18] = AngII pump 4 weeks, total 14 p210, 17 cBSA

EEEML ENVSL VCPKD ATRFK (EEEMLENVSLVCPKDATRFK) [p1]
percentage reduction (atherosclerosis) [1]: 31%

HTFLI YITEL LKKLQ STTVM (HTFLIYITELLKKLQSTTVM) [p301]
percentage reduction (atherosclerosis) [1]: 55.2%

IEIGL EGKGF EPTLE ALFGK (IEIGLEGKGFEPTLEALFGK) [p45]
percentage reduction (atherosclerosis) [1]: 47.4%

KTTKQ SFDLS VKAQY KKNKH (KTTKQSFDLSVKAQYKKNKH) [p210]
CD11c(+)CD86(+) cells in lymph nodes [2]: reduced CD11c(+)CD86(+) cells in lymph nodes | percentage reduction (atherosclerosis) [1]: 57.9% | uptake of FITC-labeled p210 by dendritic cells [3]: uptake of p210 by dendritic cells | CD8+ CD25+ T cells after co-culture with p210-loaded DCs [4]: significantly increased CD8^+ CD25^+ T cells | percent lysis relative to basal lysis, Normal medium ([5]; CD8:DC 3:1, 4 hours, 10% FBS, CD11c-gated cells, N = 11): significantly increased the percentage of DC death | cytolytic activity of CD8+ T cells after depletion of CD25+ cells ([5]; FIG. 15, panel B): abrogated the increased cytolytic activity | reduction of aortic atherosclerosis compared to PBS group [6, 17]: 57% | reduction of aortic atherosclerosis compared to cBSA/Alum group [6, 17]: 50% | athero-reduction, dose comparison ([6]; pilot experiment, 100 μg dose compared to 25 or 50 μg dose): optimum athero-reduction | Aortic AT1R [7]: 1.0 ± 0.2 arbitrary densitometric unit | LN CD11c+CD86+IFN-γ+ DCs ([8]; N = 6): 26.7 ± 1.6 percentage | Spleen CD11c+CD86+IFN-γ+ DCs ([8]; N = 8): 19.5 ± 1.6 percentage | Aneurysmal segment/total segment (%) ([9]; 8 aortic segments, AngII pump): 14.3% | Survival at 28 days ([9]; 28 days after osmotic pump implantation for Ang II infusion, 42 P210, 46 cBSA mice): 90.5% | Aneurysm incidence ([9]; Ang II pump, 42 P210, 46 cBSA mice): 54.8% | Aneurysm (include Rupture) (number of mice) [9, 18]: 8 | Rupture (number of mice) [9, 18]: 1 | Rupture incidence (%, total) [9, 18]: 7.1% | alive (number of mice) [9, 18]: 13 | atherosclerosis in recipients of B cells [10]: did not affect atherosclerosis | Granzyme B level in CD8(+) T-cells [11]: higher level of Granzyme B | reduction in blood pressure ([12]; 4 weeks after pump implantation (FIG. 11)): ~11% | change in heart rate ([12]; 4 weeks after pump implantation (FIG. 12A)): ~7% | Mean Arterial Blood Pressure (BP) ([12]; ± SEM at 13 weeks of age, p210 N = 9, cBSA N = 7): 124 ± 4 mmHg | KLH-IgG titer [13]: no difference | perforin level in CD8(+) T-cells [14]: no difference in perforin level | Aortic superoxide production [15]: 1.1 ± 0.1 arbitrary fluorescent intensity unit | TNP-IgG titer [16]: no difference
